Assay results from paper PMC10044245, “Comparative Evaluation of Existing and Rationally Designed Novel Antimicrobial Peptides for Treatment of Skin and Soft Tissue Infections” (Antibiotics, 2023).
≈ marks a conversion by molar mass, not a printed value. Where a SMILES comes first, the peptide text is derived from it.

Key:
HaCaT keratinocytes = conditions: cited from earlier work
[1] = test system: BALB/c 3T3 murine fibroblast cell line; assay: Cytotoxicity, neutral red uptake assay; assay type: cell-based; conditions: Balb/c 3T3, neutral red uptake, 48 h, tested 3.9–500 μg/mL
Excerpt: The BALB/c 3T3 murine fibroblast cell line was obtained from ATCC (American Type Culture Collection, Manassas, VA, USA). Primary human dermal fibroblasts were isolated by enzymatic digestion from skin biopsies in the Laboratory of Bioanalytical and Biodosimetry Methods, University of Latvia, in accordance with the approval of the Committee of Research Ethics of the Institute of Cardiology and Regenerative Medicine, University of Latvia. Cells were propagated in DMEM medium (Sigma, Irvine, UK), supplemented with 1% penicillin (100 U/mL)–streptomycin (100 μg/mL), and 10% calf serum (Sigma, St. Louis, MO, USA) for Balb/c 3T3 cell line and fetal bovine serum (Sigma, St. Louis, MO, USA) for primary dermal fibroblasts. All cultivations were performed in a humidified 5% CO2 atmosphere at 37 °C.
The cytotoxicity of the peptides was tested in the BALB/c3T3 cell line and primary dermal fibroblasts by the neutral red (NR) uptake assay. Cells were seeded in 96-well plates at a density of 5 × 10^3 cells per well. After 24 h of incubation, peptides in a concentration range of 3.9 to 500 μg/mL were added. Dilutions were made in a cell cultivation medium. Cultivation in the presence of extracts was performed for 48 h. Afterwards, plates were washed with phosphate-buffered saline (PBS) (Sigma, Irvine, UK), and a 25 µg/mL NR solution (Sigma, Irvine, UK) diluted in 5%-fetal-calf-serum-containing-media was added. After 3 h, incubation in a humidified 5% CO2 atmosphere at 37 °C, the plate was washed with PBS, and the NR taken up by viable cells was extracted using desorbing fixative (50% ethanol/1% acetic acid/49% water). Absorbance at 540 nm was measured using a microplate reader Tecan Infinite® 200 PRO (Tecan Group Ltd., Mannedorf, Switzerland). Cytotoxicity was expressed as a concentration-dependent reduction in the uptake of NR, compared to the untreated controls and calculated using the following equation: Cell viability (%)=Abs540nm(treatment)−Abs540nm(background)/Abs540nm(untreated control)−Abs540nm(background)×100%

[2] = test system: IL-10 secretion in LPS stimulated PBMNCs; assay: IL-10 secretion by PBMNCs, ELISA; assay type: cell-based, human; conditions: LPS and 20 μg/mL peptide, 24 h
Method: (§1) The effect of the peptides was evaluated in human peripheral blood mononuclear cells (PBMNCs). Blood from healthy donors was collected in Monovette vacutainers containing EDTA. Blood was collected in accordance with the approval of the Committee of Research Ethics of the Institute of Cardiology and Regenerative Medicine, University of Latvia. Blood was diluted (1:2 ratio by volume) with 0.9% sodium chloride solution supplemented with 10 U/mL heparin and mononuclear cell fraction isolated by gradient centrifugation. Diluted blood samples were layered on Ficoll-Paque solution in ratio 2:1 (GE Healthcare, Chicago, IL, USA), and density gradient centrifugation was performed at 800× g for 20 min at room temperature in a swing-out centrifuge. Mononuclear cells containing buffy coats were aspirated and washed twice with phosphate-buffered saline and centrifuged at 600× g for 20 min at room temperature. The cell pellet was suspended in DMEM medium (Sigma, D6046, Irvine, UK) supplemented with 1% penicillin (100 U/mL)–streptomycin (100 μg/mL) and 10% fetal bovine serum (Sigma, St. Louis, MO, USA), and cells were seeded on 24-well plates at a density of 5 × 10^5 cells per well and incubated at 37 °C, 5% CO2. […]
(§2) Concentrations of TNF-α and IL-10 secreted in cultivation media by PBMNCs were determined using enzyme-linked immunosorbent assay (ELISA). […]

[3] = test system: TNF-α secretion in LPS stimulated PBMNCs; assay: TNF-α secretion by PBMNCs, ELISA; assay type: cell-based, human; conditions: 24 h
Method: as §1, §2

P. aeruginosa = assay: microbe, parasite or virus in culture; assay type: cell-based, Pseudomonas aeruginosa; conditions: 96-well plate, serial dilutions, 32 °C, 13–18 h, 200 rpm, OD 550 nm
Method: Quantification of the antimicrobial resistance against various AMPs was carried out by measuring the bacterial growth in the presence of peptides at serial dilutes in 96 well plates in a microplate (96-well plate) reader Infinite® M200 PRO Multimode Microplate Reader (Tecan, Maennedorf, Switzerland) according to our recent reports. All bacterial strains were incubated at 32 °C for 13–18 h at 200 rpm. Optical density measurements (λ = 550 nm) were taken automatically at 10 min intervals. Antimicrobial resistance activity was quantified as the minimum inhibitory concentration (MIC)—the lowest concentration of a peptide which prevents growth of bacterial cells.

C. acnes = conditions: cited from earlier work
Method: Five AMPs were examined earlier for treatment of individual bacteria related to skin and soft tissue infections, while none of them were tested against all ESCAPE pathogens simultaneously. Peptide R1 is a direct derivate of earlier published RP551 [47], with the replacement of non-proteinogenic amino acid, ornithine (O) by lysine (K) at the positions 3,8,11, and 14.

[4] = test system: human peripheral blood mononuclear cells (PBMNCs); assay: Viability of PBMNCs, MTT reduction assay; assay type: cell-based; conditions: 24 h, 4 and 20 μg/mL with or without 5 µg/mL LPS, n = 3
Method: as §1, with “temperature.” for “temperature. The cell pellet was suspended in DMEM medium (Sigma, D6046, Irvine, UK) supplemented with 1% penicillin (100 U/mL)–streptomycin (100 μg/mL) and 10% fetal bovine serum (Sigma, St. Louis, MO, USA), and cells were seeded on 24-well plates at a density of 5 × 10^5 cells per well and incubated at 37 °C, 5% CO2.”
Viability of PBMNCs after incubation with peptides was evaluated using MTT reduction assay. […] Absorption was measured at 570 nm using Tecan Infinite® 200 PRO (Tecan Group Ltd., Mannedorf, Switzerland).
Blank wells without cells were used for the background measurement. Proliferation relative to control was calculated using the equation below. […]

Compound	concentrations without cytotoxic effect (HaCaT keratinocytes)	concentrations at which cytotoxic / reduced cell viability [1]	increase of IL-10 secretion compared to LPS alone [2]	increase of TNF-α secretion [3]	MIC P. aeruginosa (P. aeruginosa)	antimicrobial activity against C. acnes (C. acnes)	reduction of PBMNC viability [4]
CC(C)[C@H](N)C(=O)N[C@@H](CCCCN)C(=O)N[C@@H](CCCNC(=N)N)C(=O)N[C@@H](Cc1c[nH]c2ccccc12)C(=O)N[C@@H](CCCCN)C(=O)N[C@@H](CCCCN)C(=O)N[C@@H](Cc1c[nH]c2ccccc12)C(=O)N[C@@H](Cc1c[nH]c2ccccc12)C(=O)N[C@@H](CCCNC(=N)N)C(=O)N[C@@H](CCCCN)C(=O)N[C@@H](Cc1c[nH]c2ccccc12)C(=O)N[C@@H](CCCCN)C(=O)N[C@@H](CCCCN)C(=O)N[C@@H](Cc1c[nH]c2ccccc12)C(=O)N[C@H](C(=O)O)C(C)C [LZ1, reference compound] (H-VKRWKKWWRKWKKWV-OH)	up to 200 μg/mL	62.5 µg/mL					
CC[C@H](C)[C@H](NC(=O)CNC(=O)[C@H](CCCCN)NC(=O)[C@H](Cc1ccc(O)cc1)NC(=O)[C@H](CS)NC(=O)[C@@H](NC(=O)[C@H](CCCCN)NC(=O)[C@H](Cc1ccccc1)NC(=O)[C@H](CS)NC(=O)[C@H](Cc1c[nH]c2ccccc12)NC(=O)[C@@H](N)CCCNC(=N)N)C(C)C)C(=O)N[C@@H](CS)C(=O)N[C@@H](Cc1ccc(O)cc1)C(=O)N[C@@H](CCCCN)C(=O)N[C@@H](CCCCN)C(=O)N[C@@H](CS)C(=O)N[C@@H](CCCCN)C(=O)O [RP556] (H-RWCFKVCYKGICYKKCK-OH; N-terminus and C-terminus assumed)		only at the highest concentration	35.56%	below 18.3%	2 µg/mL (≈ 0.927 µM)	2 to 4 µg/mL	≤ 17.5%
